According to patent US20240075087A1, “COMPOSITIONS AND METHODS COMPRISING HEMP EXTRACT FOR THE TREATMENT OF ANIMALS IN NEED” (Portland Technology Holdings LLC, priority 2021, published 2024):
Values after ≈ are worked out from the molar mass of the structure shown.

Legend:
Assay type in all cases: cell-based, canine
[1] = tested on: D17 osteosarcoma cell line; test: 48 hours MTT proliferation assay, D17; conditions: pure compound
Procedure: 3-(4,5-Dimethylthaizol-2-yl)-2,5-diphenyltetrazolium bromide (MTT) assays are performed on all previously described cell lines; CMT12, HMPOS, D17, Abrams and 17-71. […] Cells are treated with vehicle (methanol or ethanol/DMSO mix) or various concentrations of the CBD, CBDA or CBD-rich hemp extract ranging from 0.42 to 20 μg/mL in serial dilution for 48 hours. MTT assays are performed after 48 hours of treatment by adding 20 μL of MTT dye ([…] filtered 5 mg/mL in phosphate-buffered saline [PBS]) to each well and incubating at 37° C. in 5% CO2 for 2 hours. The media is then aspirated, washed once with 200 μL of PBS and then solubilized in 200 μL of ethanol. Immediate analysis of the optical density of each well is performed using a spectrophotometric plate reader (Epoch; Biotek, Winooski, Vermont) at a wavelength of 570 nm as previously described (e.g., Vega-Avila E and Pugsley M K, An overview of colorimetric assay methods used to assess survival or proliferation of mammalian cells, Proc West Pharmacol Soc., 2011, 54, pp. 10-14 which is incorporated herein by reference in its entirety). The percent proliferating cells of control for each concentration is averaged and reported as a mean+/—SD from triplicate wells over three experiments.
For CBD, CBDA and hemp extract concentrations needed to obtain a 50% inhibition of cell proliferation (IC50) are then calculated across experiments by Probit analysis using XLFit5 software (IDBS, Guildford, United Kingdom) for reporting the results for each cell line.

CMT12 and D17 cells = test: LC3A/B immunofluorescence; conditions: 10 μg/mL CBD, 6 hours
Procedure: CMT12 and D17 adherent cell lines are split into Nunc chamber slides (ThermoFisher Scientific, Rochester, New York) and the cells that are 70% confluent are treated for 6 hours with either methanol control or 10 μg/mL of CBD. Cells are fixed with 4% paraformaldehyde for 1 hour and then permeabilized with PBS containing 0.1% Triton X-100 for 30 minutes. Cells are then washed with PBS and incubated with bovine serum albumin (Sigma Aldrich, St. Louis, Missouri) for 30 minutes and then goat anti-serum (Vector Labs, Burlingame, California) for 1 hour and then washed twice with PBS for 10 minutes while rocking at room temperature. […] Coverslips are mounted using Vectrashield DAPI mounting media (Vector Labs, Burlingame, California) and the images are captured at the same fluorescence intensity for each image at 400 or 600 magnification and processed using an Olympus fluorescent microscope and DP controller software (Olympus Corp., Center Valley, Pennsylvania).

[2] = tested on: 17-71, CMT12 and D17 cell lines; test: Time course Western blot of signalling pathways, autophagy and caspase 3
Procedure: Cells are plated on 100 mm tissue culture-treated plates and incubated overnight in complete medium until 60% confluency is reached. […] Cells are harvested and lysed at each time point for control and CBD treated cells using mammalian lysis buffer (25 mM Tris, 100 mM NaCl, 1 mM EDTA, 1% Triton X-100, pH 7.4), and then centrifuged for 5 minutes at 12 000 g at 4° C. The supernatant is collected and the protein concentration is determined using the Bradford assay (Coomassie-dye; ThermoFisher Scientific Pierce, Waltham, Massachusetts). […] Membranes are incubated overnight in primary antibody solutions at a dilution of 1:1000 in TBST on a rocking platform at 4° C. Primary antibodies confirmed as cross reactive with canine cells or tissues include mouse extracellular regulated kinase (ERK) (R&D Biosciences, Boston, Massachusetts); rabbit anti-protein kinase B (AKT), Ser473 phosphorylated-AKT, stress-activated protein kinase/jun-amino-terminal kinase (SAPK/JNK), Thr183/Tyr185 phosphorylated-SAPK/JNK, mammalian target of rapamycin (mTOR), Ser2448 phosphorylated-mTOR, anti-Thr202/Tyr204 phosphorylated p44/42 MAPK (ERK1/2), anti-p38, anti-phosphorylated p38, anti-p62 and anti-LC3 A/B (Cell Signalling Technology, Danvers, Massachusetts)(e.g., Syrjä P, Anwar T, Jokinen T, Kyöstilä K, Jäderlund K H, Cozzi F, Rohdin C, Hahn K, Wohlsein P, Baumgärtner W, Henke D, Oevermann A, Sukura A, Leeb T, Lohi H, and Eskelinen E L, Basal Autophagy Is Altered in Lagotto Romagnolo Dogs with an ATG4D Mutation, Vet Pathol, 2017 November, 54(6), pp. 953-963, doi: 10.1177/0300985817712793; Gordon I K, Ye F, and Kent M, Evaluation of the mammalian target of rapamycin pathway and the effect of rapamycin on target expression and cellular proliferation in osteosarcoma cells from dogs, Amer J Vet Res, 2008, 69, pp. 1079-1084; Ikari A, Atomi K, Kinjo Y, and Sugatani J, Magnesium deprivation inhibits a MEK-ERK cascade and cell proliferation in epithelial Madin-Darby canine kidney cells, Life Sci, 2010, 86, pp. 766-773; and Levine C B, Bayle J, Biourge V, and Wakshlag J J, Effects and synergy of feed ingredients on canine neoplastic cell proliferation, BMC Vet Res, 2016, 12(1), 159, which are incorporated herein by reference in their entirety). Membranes are washed three times with TBST and incubated at room temperature for 1 hour in the corresponding secondary anti-rabbit IgG or anti-mouse IgG horseradish peroxidase-conjugated antibody at a dilution of 1:2000 (Cell Signalling Technology, Danvers, MA). Membranes are washed three times with TBST and visualized with a chemi-luminescent reagent (Clarity Western ECL Substrate; Bio-Rad, Hercules, California). Digital images are captured using an imaging system (Biospectrum 410; UVP, Upland, California or FluorChem E; Cell Biosciences, San Jose, California). Each blot is performed twice from two different experiments to confirm findings.

C=C(C)[C@@H]1CCC(C)=C[C@H]1c1c(O)cc(CCCCC)cc1O [CBD, cannabidiol]
IC50 ([1]; Canis lupus familiaris, read-out: IC50 (Probit)): 4.1 µg/mL (≈ 13 µM) | concentrations that significantly diminished proliferation vs vehicle control ([1]; P<0.05): ≥ 5 µg/mL | LC3A/B immunofluorescence (CMT12 and D17 cells): numerous discrete punctate intensely staining vesicles | caspase 3 activation ([2]; 10 μg/mL CBD, 2, 4, 8 hours): activation of caspase 3 which can also be seen at 2 hours in the 17-71 cells, but is not evident until hour 8 in the CMT12 and D17 CBD treated cells | AKT, phosphorylated-AKT, mTOR and phosphorylated-mTOR immunoblots ([2]; 10 μg/mL CBD, 2, 4 and 8 hours): no depression or increased intensity of the signal over time | LC3II proportion of LC3 protein ([2]; 10 μg/mL CBD, 2 to 8 hours, all three cell lines): increase in the LC3II proportion of LC3 protein | ERK and JNK phosphorylation ([2]; 10 μg/mL CBD, 8 hour time-course vs methanol vehicle): repeatable increases in both ERK and JNK phosphorylation across all three cell lines | autophagy cargo carrier protein p62 (western blotting) ([2]; 10 μg/mL CBD, over 8 hours): marked decrease | p38 phosphorylation and activation ([2]; CBD treatment): minimal influence on the p38 phosphorylation and activation | cleaved caspase 3 (17 Kda) immunoblotting ([2]; after 8 and 16 hours of CBD treatment vs methanol vehicle control): cleaved caspase across all cell lines at both time points
